{"source": "patent US9969724B2", "about": "“Factor IXa inhibitors” (Merck Sharp & Dohme Corp., priority 2014, dated 2018)"}
{"biological_target": "human factor IXa (Homo sapiens (Human), UniProt P00740)", "sequence (P00740 227-461)": "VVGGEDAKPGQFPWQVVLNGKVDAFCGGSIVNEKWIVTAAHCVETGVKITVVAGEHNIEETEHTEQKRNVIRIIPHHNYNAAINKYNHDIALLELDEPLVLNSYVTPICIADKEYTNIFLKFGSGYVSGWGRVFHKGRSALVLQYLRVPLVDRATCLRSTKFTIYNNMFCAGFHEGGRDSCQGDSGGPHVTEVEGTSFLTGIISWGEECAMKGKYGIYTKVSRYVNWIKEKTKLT", "sequence (P00740 47-191 partner)": "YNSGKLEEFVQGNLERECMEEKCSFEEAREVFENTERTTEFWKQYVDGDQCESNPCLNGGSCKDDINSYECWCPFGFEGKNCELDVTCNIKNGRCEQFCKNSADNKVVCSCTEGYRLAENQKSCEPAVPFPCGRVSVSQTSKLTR", "assay": "Determination of Inhibitory Activity Against Factor IXa", "type": "biochemical", "conditions": "Factor IXa enzyme assay human; read-out: FIXa IC50", "protocol": "Inhibitory activity against factor IXa was tested using the substrate SPECTROFLUOR FIXa (american diagnostica inc.; 500 West Avenue, Stamford, Conn. 06902 USA; Pr. No. 299F) and human factor IXa (american diagnostica inc.; Pr. No. 449b). Test substances were dissolved in buffer A (50 mM α,α,α-tris(hydroxymethyl) methylamine (Tris), 100 mM NaCl, 5 mM CaCl2, 15% (v/v) ethylene glycol, pH 8.0) were mixed with factor IXa (0.1 μg/ml final concentration). The enzyme reaction was started by addition of SPECTROFLUOR FIXa (100 μM final concentration). After incubation for 60 minutes at room temperature, the reaction was stopped by the addition of 20% (v/v) acetic acid solution, and then the fluorescence value was measured (Excitation Wavelength: 355 nm, Emission Wavelength; 460 nm) in a microtiter plate reader (ARVO 1420 Multilabel Counter; PerkinElmer).\nThe IC50 was calculated from a dilution series of the test substance with the aid of the software, Symyx Assay Explorer (Symyx Technologies, Inc.).", "units": {"IC50": "nM"}}
{"smiles": "Nc1noc2c(N3CC[C@@H](NC(=O)c4ccc(-n5cnc6ncncc65)cc4Cl)C3)ncc(Cl)c12", "note": "[Example 51, (R)—N-(1-(3-Amino-4-chloroisoxazolo[5,4-c]pyridin-7-yl)pyrrolidin-3-yl)-2-chloro-4-(7H-purin-7-yl)benzamide]", "IC50": "≤ 100"}
{"smiles": "Nc1noc2c(N3CC[C@@H](NC(=O)c4ccc(-c5cncnc5)cc4Cl)C3)ncc(Cl)c12", "note": "[Example 20, (R)—N-(1-(3-Amino-4-chloroisoxazolo[5,4-c]pyridin-7-yl)pyrrolidin-3-yl)-2-chloro-4-(pyrimidin-5-yl)benzamide]", "IC50": "≤ 100"}
{"smiles": "Cc1cc2c(N)noc2c(N2CC[C@@H](NC(=O)c3ccc(-n4cc(CCO)nn4)cc3Cl)C2)n1", "note": "[Example 42, (R)—N-(1-(3-Amino-5-methylisoxazolo[5,4-c]pyridin-7-yl)pyrrolidin-3-yl)-2-chloro-4-(4-(2-hydroxyethyl)-1H-1,2,3-triazol-1-yl)benzamide]", "IC50": "≤ 100"}
{"smiles": "Cn1ncn(-c2ccc(C(=O)N[C@@H]3CCN(c4ncc(Cl)c5c(N)noc45)C3)c(Cl)c2)c1=O", "note": "[Example 45, (R)—N-(1-(3-Amino-4-chloroisoxazolo[5,4-c]pyridin-7-yl)pyrrolidin-3-yl)-2-chloro-4-(1-methyl-5-oxo-1,5-dihydro-4H-1,2,4-triazol-4-yl)benzamide]", "IC50": "≤ 100"}
{"smiles": "Cn1cc(-c2ccc(C(=O)N[C@@H]3CCN(c4ncc(Cl)c5c(N)noc45)C3)c(Cl)c2)cnc1=O", "note": "[Example 44, (R)—N-(1-(3-Amino-4-chloroisoxazolo[5,4-c]pyridin-7-yl)pyrrolidin-3-yl)-2-chloro-4-(1-methyl-2-oxo-1,2-dihydropyrimidin-5-yl)benzamide]", "IC50": "≤ 100"}
{"smiles": "Nc1noc2c(N3CC[C@@H](NC(=O)c4ccc(-n5cncn5)cc4Cl)C3)ncc(Cl)c12", "note": "[Example 24, (R)—N-(1-(3-Amino-4-chloroisoxazolo[5,4-c]pyridin-7-yl)pyrrolidin-3-yl)-2-chloro-4-(1H-1,2,4-triazol-1-yl)benzamide]", "IC50": "≤ 100"}
{"smiles": "Nc1noc2c(N3CCC(NC(=O)c4ccc(-n5cnnc5)cc4Cl)C3)cccc12", "note": "(centres unmarked) [Example 1, N-(1-(3-Aminobenzo[d]isoxazol-7-yl)pyrrolidin-3-yl)-2-chloro-4-(4H-1,2,4-triazol-4-yl)benzamide]", "IC50": "≤ 100"}
{"smiles": "Nc1noc2c(N3CC[C@@H](NC(=O)c4ccc(-n5cnc(CCO)c5)cc4Cl)C3)ncc(Cl)c12", "note": "[Example 27, (R)—N-(1-(3-Amino-4-chloroisoxazolo[5,4-c]pyridin-7-yl)pyrrolidin-3-yl)-2-chloro-4-(4-(2-hydroxyethyl)-1H-imidazol-1-yl)benzamide]", "IC50": "≤ 100"}
{"smiles": "Nc1nsc2c(N3CCC(NC(=O)c4c(Cl)cc(-n5cnnc5)cc4Cl)C3)cccc12", "note": "(centres unmarked) [Example 4, N-(1-(3-Aminobenzo[d]isothiazol-7-yl)pyrrolidin-3-yl)-2,6-dichloro-4-(4H-1,2,4-triazol-4-yl)benzamide]", "IC50": "100 to 1000"}
{"smiles": "COc1ncc(-c2ccc(C(=O)N[C@@H]3CCN(c4ncc(Cl)c5c(N)noc45)C3)c(Cl)c2)cn1", "note": "[Example 21, (R)—N-(1-(3-Amino-4-chloroisoxazolo[5,4-c]pyridin-7-yl)pyrrolidin-3-yl)-2-chloro-4-(2-methoxypyrimidin-5-yl)benzamide]", "IC50": "≤ 100"}
{"smiles": "Nc1noc2c(N3CC[C@@H](NC(=O)c4ccc(-c5cncc(CO)c5)cc4Cl)C3)ccc(Cl)c12", "note": "[Example 25, (R)—N-(1-(3-Amino-4-chlorobenzo[d]isoxazol-7-yl)pyrrolidin-3-yl)-2-chloro-4-(5-(hydroxymethyl)pyridin-3-yl)benzamide]", "IC50": "≤ 100"}
{"smiles": "CC1(NC(=O)c2c(Cl)cc(-n3cnnc3)cc2Cl)CCN(c2cccc3c(N)noc23)C1", "note": "(centres unmarked) [Example 2, N-(1-(3-Aminobenzo[d]isoxazol-7-yl)-3-methylpyrrolidin-3-yl)-2,6-dichloro-4-(4H-1,2,4-triazol-4-yl)benzamide]", "IC50": "≤ 100"}
{"smiles": "Cc1cc(N2CC[C@@H](NC(=O)c3ccc(-n4cnnc4)cc3Cl)C2)c2onc(N)c2c1Cl", "note": "[Example 12, (R)—N-(1-(3-Amino-4-chloro-5-methylbenzo[d]isoxazol-7-yl)pyrrolidin-3-yl)-2-chloro-4-(4H-1,2,4-triazol-4-yl)benzamide]", "IC50": "≤ 100"}
{"smiles": "Nc1noc2c(N3CC[C@@H](NC(=O)c4ccc(-n5cc(CCO)cn5)cc4Cl)C3)ccc(Cl)c12", "note": "[Example 26, (R)—N-(1-(3-Amino-4-chlorobenzo[d]isoxazol-7-yl)pyrrolidin-3-yl)-2-chloro-4-(4-(2-hydroxyethyl)-1H-pyrazol-1-yl)benzamide]", "IC50": "≤ 100"}
{"smiles": "Nc1noc2c(N3CC[C@@H](NC(=O)c4ccc(-n5cnc(CO)n5)cc4Cl)C3)cc(Cl)cc12", "note": "[Example 16, (R)—N-(1-(3-Amino-5-chlorobenzo[d]isoxazol-7-yl)pyrrolidin-3-yl)-2-chloro-4-(3-(hydroxymethyl)-1H-1,2,4-triazol-1-yl)benzamide]", "IC50": "≤ 100"}
{"smiles": "Nc1noc2c(N3CC[C@@H](NC(=O)c4ccc(-n5cnnc5)cc4Cl)C3)cc(Cl)cc12", "note": "[Example 10, (R)—N-(1-(3-Amino-5-chlorobenzo[d]isoxazol-7-yl)pyrrolidin-3-yl)-2-chloro-4-(4H-1,2,4-triazol-4-yl)benzamide]", "IC50": "≤ 100"}
{"smiles": "Nc1noc2c(N3CC[C@@H](NC(=O)c4ccc(-n5cnnc5C(F)(F)F)cc4Cl)C3)ncc(Cl)c12", "note": "[Example 43, (R)—N-(1-(3-Amino-4-chloroisoxazolo[5,4-c]pyridin-7-yl)pyrrolidin-3-yl)-2-chloro-4-(3-(trifluoromethyl)-4H-1,2,4-triazol-4-yl)benzamide]", "IC50": "≤ 100"}
{"smiles": "Nc1noc2c(N3CC[C@@H](NC(=O)c4ccc(-n5cnc6ccccc65)cc4Cl)C3)ncc(Cl)c12", "note": "[Example 29, (R)—N-(1-(3-Amino-4-chloroisoxazolo[5,4-c]pyridin-7-yl)pyrrolidin-3-yl)-4-(1H-benzo[d]imidazol-1-yl)-2-chlorobenzamide]", "IC50": "≤ 100"}
{"smiles": "N#Cc1ncc(-c2ccc(C(=O)N[C@@H]3CCN(c4ncc(Cl)c5c(N)noc45)C3)c(Cl)c2)cn1", "note": "[Example 22, (R)—N-(1-(3-Amino-4-chloroisoxazolo[5,4-c]pyridin-7-yl)pyrrolidin-3-yl)-2-chloro-4-(2-cyanopyrimidin-5-yl)benzamide]", "IC50": "≤ 100"}
{"smiles": "Nc1noc2c(N3CCC(NC(=O)c4ccc(-n5cnnc5)cc4Cl)C3)nccc12", "note": "(centres unmarked) [Example 5, N-(1-(3-Aminoisoxazolo[5,4-c]pyridin-7-yl)pyrrolidin-3-yl)-2-chloro-4-(4H-1,2,4-triazol-4-yl)benzamide]", "IC50": "≤ 100"}
{"smiles": "Nc1noc2c(N3CC[C@@H](NC(=O)c4ccc(-n5cnc(CCO)n5)cc4Cl)C3)ccc(Cl)c12", "note": "[Example 23, (R)—N-(1-(3-Amino-4-chlorobenzo[d]isoxazol-7-yl)pyrrolidin-3-yl)-2-chloro-4-(3-(2-hydroxyethyl)-1H-1,2,4-triazol-1-yl)benzamide]", "IC50": "≤ 100"}
{"smiles": "Nc1noc2c(N3CC[C@@H](NC(=O)c4ccc(-n5cnn(CC(F)(F)F)c5=O)cc4Cl)C3)ncc(Cl)c12", "note": "[Example 50, (R)—N-(1-(3-Amino-4-chloroisoxazolo[5,4-c]pyridin-7-yl)pyrrolidin-3-yl)-2-chloro-4-(5-oxo-1-(2,2,2-trifluoroethyl)-1,5-dihydro-4H-1,2,4-triazol-4-yl)benzamide]", "IC50": "≤ 100"}
{"smiles": "Cc1cc(-n2cncn2)ccc1C(=O)N[C@@H]1CCN(c2ccc(Cl)c3c(N)noc23)C1", "note": "[Example 19, (R)—N-(1-(3-Amino-4-chlorobenzo[d]isoxazol-7-yl)pyrrolidin-3-yl)-2-methyl-4-(1H-1,2,4-triazol-1-yl)benzamide]", "IC50": "100 to 1000"}
